These results are taken from patent US8796249B2, “TGR5 modulators and methods of use thereof” (Intercept Pharmaceuticals, Inc., priority 2008, dated 2014).

Read-outs that look alike come from different tables or passages of the source. Marks after values point to notes of the source that are not given here.

One series concerns the target T1, VDR (Homo sapiens, UniProt P11473).
T1 sequence (P11473 1-427): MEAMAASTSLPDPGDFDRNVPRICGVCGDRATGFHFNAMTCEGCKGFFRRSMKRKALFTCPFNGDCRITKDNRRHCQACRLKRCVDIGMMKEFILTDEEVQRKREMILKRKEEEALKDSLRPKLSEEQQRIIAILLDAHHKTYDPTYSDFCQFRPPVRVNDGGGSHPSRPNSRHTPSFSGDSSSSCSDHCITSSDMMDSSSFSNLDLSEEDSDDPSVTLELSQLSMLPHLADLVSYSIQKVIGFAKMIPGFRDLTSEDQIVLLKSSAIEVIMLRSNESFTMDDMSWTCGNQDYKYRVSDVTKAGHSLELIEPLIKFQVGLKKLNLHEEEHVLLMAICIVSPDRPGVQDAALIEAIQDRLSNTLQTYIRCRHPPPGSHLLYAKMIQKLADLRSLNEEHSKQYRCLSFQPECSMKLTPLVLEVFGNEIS
Nature of the series: NR selectivity assay VDR. As to conditions: unnamed ref standard 0.005 μM.

Series [1] in a line: Critical micellar concentration by surface tension (maximum bubble-pressure method). It counts as physicochemical. Particulars: […] NaCl water solution. On the procedure: The critical micellar concentration (CMC) was determined by surface tension (ST) measurements using a maximum bubble-pressure method which give surface tension values slightly affected by potential impurities like static methods are. The tensiometer was a […] Research Corp., Milwaukee, Wis.) equipped with two glass probes of 0.5 and 4.0 mm diameters connected to a source of nitrogen. The bubble frequency was 1 bubble/second in distilled water at 26° C. (P=2.7 atm) and the calibration was made with double-distilled water and methanol. The surface tension of BA sodium salts solutions in NaCl 0.15 M was measured at various concentrations inside the 0.13-50 mM range. The surface tension values were plotted against the logarithm of the bile salt concentration; the regression lines corresponding to the two parts of the curve (monomeric and micellar phases) were calculated using the method of least squares, and the intersection of the lines was taken as the CMC value. From the ST vs concentration curves the value of the surface tension at the CMC (equilibrium between monomers and multimers species) was also calculated giving information about the detergency power which is related to the size of the micelles with associate surface tension lowering capacity. The CMC was evaluated by surface tension measurements in non equilibrium conditions i.e. in conditions that impurities slightly affect the surface tension results (FIG. 1).

Series [2] concerns the target T2, bovine serum albumin (Bos taurus, UniProt P02769).
T2 construct: dissolved at a concentration of 100 μM in 5% bovine serum albumin-saline solution (pH 7.2); from tissue; host or cells: bovine serum (only from the protein's name)
Briefly: Albumin binding by equilibrium dialysis. Particulars: 100 μM BA in 5% bovine serum albumin-saline, pH 7.2. It counts as in vitro ADME. On the procedure:
The extent of albumin binding was evaluated by equilibrium dialysis at a fixed BA-albumin ratio. BA was dissolved at a concentration of 100 μM in 5% bovine serum albumin-saline solution (pH 7.2) and left to stand for 24 h at 25° C. Two milliliters of this solution was dialyzed in cellulose sacs having a molecular weight cut-off of 12-14,000 against 25 ml of saline solution. The system was equilibrated by mechanical gently shaking for 72 h at 25° C. BA concentrations of the dialyzed solution (corresponding to the free unbound fraction) and of the starting solution were determined with HPLC-ESI-MS/MS in the same conditions of the previous analysis. The percent of albumin binding was calculate from the initial BA concentration and from the unbound concentration in the dialyzed fraction. All these compounds never less present an albumin binding compatible with a relatively fast hepatic uptake, similarly to natural occurring BA. Accordingly different kinetics (slower) of the liver uptake is expected.
On the technique in general: Equilibrium dialysis compares concentrations on both sides of a semipermeable membrane.

The test system of the next series is Intestinal Bacteria. Briefly: In vitro metabolic stability in human stool culture. Particulars: human stool cultures.
Series [3] is described as follows: 1-Octanol/water partition coefficient (shake-flask). Type of series: physicochemical. Particulars: ionized species, pH 8. The method, then: Since the sulphate and sulphonated analogues are always ionised at all pH values the octanol/water partition coefficient was measured for all molecules in ionized form. 1-Octanol/water partition coefficient (log P) was evaluated using a conventional shake-flask procedure. […] The aqueous buffer was previously pre-saturated with 1-octanol, 5 ml of 1-octanol pre-saturated with water was then added and the samples were left to equilibrate for 2 weeks under continuous stirring at room temperature After centrifugation the two phases were carefully separated. BA concentration in the water phase was measured with HPLC-ESI ? MS/MS using C18 column (150 mm×2 mm i.d., 4 μm) and, as mobile phases, water containing 15 mM acetic acid pH 5 and acetonitrile. The flow rate was 150 μal/min and the column was maintained at 45° C. The mass spectrometry acquisition was performed in the multiple reaction monitoring mode using the ESI source in negative ionization.

The target of the next series is T3, PPARδ (Homo sapiens, UniProt Q03181).
T3 sequence (Q03181 1-441): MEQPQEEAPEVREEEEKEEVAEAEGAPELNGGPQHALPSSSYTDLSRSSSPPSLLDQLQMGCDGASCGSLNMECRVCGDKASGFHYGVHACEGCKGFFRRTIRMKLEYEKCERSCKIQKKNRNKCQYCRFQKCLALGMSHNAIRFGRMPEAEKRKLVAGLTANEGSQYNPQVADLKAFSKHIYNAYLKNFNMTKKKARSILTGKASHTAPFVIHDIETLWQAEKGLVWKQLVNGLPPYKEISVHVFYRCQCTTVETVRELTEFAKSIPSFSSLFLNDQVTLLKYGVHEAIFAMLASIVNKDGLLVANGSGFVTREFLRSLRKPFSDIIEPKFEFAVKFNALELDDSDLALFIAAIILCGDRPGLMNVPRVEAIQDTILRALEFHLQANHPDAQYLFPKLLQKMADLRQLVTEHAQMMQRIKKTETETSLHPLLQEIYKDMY
Nature of the series: NR selectivity assay PPARδ. Particulars: unnamed ref standard 0.004 μM.

Another series has as its target T4, CAR (Homo sapiens, UniProt Q14994).
T4 sequence (Q14994 1-352): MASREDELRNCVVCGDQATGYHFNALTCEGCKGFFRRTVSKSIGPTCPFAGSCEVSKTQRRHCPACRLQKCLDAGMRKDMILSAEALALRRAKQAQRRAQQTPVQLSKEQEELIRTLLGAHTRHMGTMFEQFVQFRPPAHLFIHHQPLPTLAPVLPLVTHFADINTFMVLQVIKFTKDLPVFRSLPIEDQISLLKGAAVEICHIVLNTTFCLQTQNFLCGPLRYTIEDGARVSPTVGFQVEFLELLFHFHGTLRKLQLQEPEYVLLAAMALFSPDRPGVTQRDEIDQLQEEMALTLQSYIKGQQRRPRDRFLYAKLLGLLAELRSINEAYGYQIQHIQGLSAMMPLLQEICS
Nature of the series: CAR coactivator recruitment (Lanthascreen). It counts as biochemical. On the procedure: (§1) The selectivity of compounds of the invention was evaluated using assay methods known in the art. Specifically, the following assay methods were used: • FXR and LXR: Coactivator Recruitment (alphascreen); • TGR5: cAMP level on human intestinal cell line (NCI-H716); • PXR: Ligands Competition assay (Binding Assay) • CAR: Coactivator Recruitment (Lanthascreen)
For orientation: Time-resolved FRET reads energy transfer from a long-lived donor to a nearby acceptor.

Another series addresses T5, LXRα (Homo sapiens, UniProt Q13133).
T5 sequence (Q13133 1-447): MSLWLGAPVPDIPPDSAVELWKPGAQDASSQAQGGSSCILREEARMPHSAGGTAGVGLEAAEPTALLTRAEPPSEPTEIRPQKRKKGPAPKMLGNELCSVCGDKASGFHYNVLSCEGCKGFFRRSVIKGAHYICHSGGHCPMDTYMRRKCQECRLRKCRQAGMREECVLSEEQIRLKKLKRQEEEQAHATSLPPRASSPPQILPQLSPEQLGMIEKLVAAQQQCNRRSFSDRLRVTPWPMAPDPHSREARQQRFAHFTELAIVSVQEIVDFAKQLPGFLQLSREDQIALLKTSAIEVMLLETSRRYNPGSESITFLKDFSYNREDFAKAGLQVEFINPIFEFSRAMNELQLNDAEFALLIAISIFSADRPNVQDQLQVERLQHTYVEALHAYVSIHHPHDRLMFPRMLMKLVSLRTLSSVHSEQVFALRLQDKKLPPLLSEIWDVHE
Briefly: LXR coactivator recruitment (alphascreen). Type of series: biochemical. Particulars: ref standard T0901317. The method, then:
as §1

A short description of series [4]: Previous study of oleanolic acid (OA) in animals. It counts as in vivo. On the procedure:
Therefore, OA is administered at the dose of 50 mg/kg/d in this study.

A further series relates to HepG2 cell. Nature of the series: HepG2 cell cytotoxicity, ATP decrease. Type of series: cell-based. The method, then: Compounds of the invention were evaluated for cytotoxicity using standard methods known in the art. Specifically, cytotoxicity was evaluated using HEPG2 cells and monitoring ATP decrease and determining the EC50 value. […]
The next series can be described thus: Water solubility. Type of series: physicochemical. As to conditions: BA as protonated species, 0.1 M HCl, pH 1; hs = highly soluble, not evaluated. On the procedure:
Solid compound (BA) was suspended in 5 ml of 0.1 M HCl. […] The flow rate was 150 μl/min. The mass spectrometry acquisition was performed in the multiple reaction monitoring mode using the ESI source in negative ionization. Water solubility was expressed as μmol/liter.
The water solubility was measured for the insoluble protonated species of carboxylated bile acids at a pH 1.

The conditions of series [5]: ionized species; values from literature; cited from earlier work.
In series [6] the target is T2, bovine serum albumin. As to conditions: values from literature; cited from earlier work.
The conditions of series [7]: […] NaCl water solution; values from literature; cited from earlier work.
Where [8] appears, read: coactivator recruitment (Lanthascreen), ref standard CITCO.

T2 sequence (P02769 25-607): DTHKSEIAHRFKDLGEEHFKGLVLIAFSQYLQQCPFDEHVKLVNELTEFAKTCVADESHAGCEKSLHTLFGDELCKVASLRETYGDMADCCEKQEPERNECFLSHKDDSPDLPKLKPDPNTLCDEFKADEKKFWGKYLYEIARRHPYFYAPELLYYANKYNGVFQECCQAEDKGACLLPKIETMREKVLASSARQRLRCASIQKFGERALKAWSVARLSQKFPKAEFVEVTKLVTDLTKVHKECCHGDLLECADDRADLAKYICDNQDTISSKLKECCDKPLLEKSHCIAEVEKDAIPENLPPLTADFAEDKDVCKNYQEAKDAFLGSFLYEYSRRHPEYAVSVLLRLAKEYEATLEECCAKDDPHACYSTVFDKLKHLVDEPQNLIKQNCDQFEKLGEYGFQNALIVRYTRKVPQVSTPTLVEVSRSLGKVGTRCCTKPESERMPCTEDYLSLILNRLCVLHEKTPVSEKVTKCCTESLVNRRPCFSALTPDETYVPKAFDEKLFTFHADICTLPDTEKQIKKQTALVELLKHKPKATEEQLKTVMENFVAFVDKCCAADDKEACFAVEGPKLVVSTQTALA
Procedure for Intestinal Bacteria: Homogenized fresh human stools (500 mg) were transferred into sterile vials to which 5 mL of sterilized chopped meat-glucose medium (Scott Lab., Fiskville, R.I.) was added. BA were then added at a final concentration of 0.05 mM. Vials were incubated at 37° C.; then, at 0, 1, 2, 4, 8 and 24 h after the addition of the BA, the reaction was stopped with 150 μL of 30% KOH. The samples were centrifuged at 3500 rpm for 10 min; from the supernatant the BA were isolated by C-18 solid-phase extraction and analyzed by TLC and HPLC-ES-MS/MS.
Thin-layer chromatography (TLC), utilizing silica gel 0.25 mm thickness plates (Merck, Darmstat, Germany), was employed as the first screening test. The solvent system used for the separation of conjugated BA was composed of propionic acid/isoamyl acetate/water/N-propanol (3:4:1:2, v/v/v/v; solvent I), and that of the unconjugated BA was acetic acid/carbon tetrachloride/isopropyl ether/isoamyl acetate/water/N-propanol/benzene (1:4:6:8:2:2, v/v/v/v/v/v; solvent II).

Broadly, the EC50 is the concentration that produces a half-maximal response. Low readings indicate a more potent agent, high ones a less potent agent. `C[C@H](CCC(=O)O)[C@H]1CC[C@H]2[C@@H]3[C@H](O)C[C@@H]4C[C@H](O)CC[C@]4(C)[C@H]3CC[C@]12C` [CDCA, chenodeoxycholic acid]: the “VDR EC50” value at VDR was “No”. Also, in series [1], the “CMC […] Na+” value was determined as 3.2 mM and the “STCMC (surface tension at CMC)” value is reported as 45.5 Dyne/cm. For the same compound, the “Albumin Binding” value at bovine serum albumin [2] is listed as 93%. In addition, the half-life time result with Intestinal Bacteria was “almost one hour”. Also, the “LogPA- (1-octanol-water partition coefficient)” value in series [3] worked out at 2.2. Moreover, the “PPARδ EC50” value at PPARδ is reported as “No”. Besides, at CAR, the EC50 is greater than 250 µM. Besides, the “LXRα EC50” value at LXRα is recorded as “No”.

On to `C[C@H](CCC(=O)O)[C@H]1CC[C@H]2[C@@H]3CC[C@@H]4C[C@H](O)CC[C@]4(C)[C@H]3CC[C@]12C` [LCA, lithocholic acid], for which the “PPARδ EC50” value at PPARδ is recorded as “No”. Further, the “CAR EC50” value at CAR (setting [8]) is “No”. Further, on LXRα, the “LXRα EC50” value is “No”.

On to `CC1(C)CC[C@]2(C(=O)O)CC[C@]3(C)C(=CC[C@@H]4[C@@]5(C)CC[C@H](O)C(C)(C)[C@@H]5CC[C@]43C)[C@@H]2C1` [OA, oleanolic acid], for which the food aversion result in series [4] is reported as “did not cause food aversion”. Moreover, in series [4] (dose of 100 mg/kg/day), the toxicity result was “some signs of toxicity”. In addition, the tolerability result in series [4] (lower dose than 100 mg/kg/day) is reported as “well tolerated”.

With `CN[C@@H]1C[C@H]2O[C@@](C)([C@@H]1OC)n1c3ccccc3c3c4c(c5c6ccccc6n2c5c31)C(=O)NC4` [Staurosporine, reference compound], in the series on HepG2 cell (human), a half-maximal response (EC50) required 15 µM.

Turning to `C[C@H](CCC(=O)NCCS(=O)(=O)O)[C@H]1CC[C@H]2[C@@H]3[C@H](O)C[C@@H]4C[C@H](O)CC[C@]4(C)[C@H]3CC[C@]12C` [TCDCA], in “Water solubility”, the “Ws (water solubility)” value was “hs”. Also, the “LogPA- (1-octanol-water partition coefficient)” value in series [5] is 0.9*. Also, the “Albumin Binding” value at bovine serum albumin [6] was 70* %. For the same compound, the “CMC […] Na+” value in series [7] is recorded as 3.0* mM.

Take `C[C@H](CCC(=O)NCCS(=O)(=O)O)[C@H]1CC[C@H]2[C@@H]3[C@@H](O)C[C@@H]4C[C@H](O)CC[C@]4(C)[C@H]3CC[C@]12C` [TUDCA]: the “Ws (water solubility)” value in “Water solubility” is recorded as “hs”. In series [5], the “LogPA- (1-octanol-water partition coefficient)” value is recorded as 1.1*. The “Albumin Binding” value at bovine serum albumin [6] is recorded as 67* %. In addition, the “CMC […] Na+” value in series [7] is reported as 2.2* mM.

In the case of `C[C@H](CCC(=O)O)[C@H]1CC[C@H]2[C@@H]3[C@@H](O)C[C@@H]4C[C@H](O)CC[C@]4(C)[C@H]3CC[C@]12C` [UDCA, reference compound], the “VDR EC50” value on VDR is “No”. The EC50 in the series with HepG2 cell is greater than 1000 µM; at CAR (setting [8]), greater than 250 µM. Besides, in “Water solubility”, the “Ws (water solubility)” value stood at 7.5 µM. The “CMC […] Na+” value in series [1] was 6.0 mM. In addition, in series [1], the “STCMC (surface tension at CMC)” value was 50.5 Dyne/cm. Besides, the “Albumin Binding” value on bovine serum albumin [2] came to 94%. In addition, the “LogPA- (1-octanol-water partition coefficient)” value in series [3] came out at 2.2. The “PPARδ EC50” value at PPARδ is listed as “No”. Further, the “LXRα EC50” value on LXRα is on record as “No”.
